The target in this assay is T1, COX-1 (Sus scrofa, UniProt A0A287ANF9).
T1 construct: A platelet suspension obtained from pig's blood is preincubated with the test substance; endogenous in cells; host or cells: platelets from pig's blood
Briefly: In-vitro test for COX-1 inhibition: fluorimetric quantification of malonaldehyde (MDA) in A23187-activated pig platelet suspension. Format: cell-based. The following applies: pig platelets. As for the experimental part:
In-vitro Test Procedure for the Determination of COX-1 Inhibition
The inhibition of the cyclooxygenase pathway is carried out by fluorimetric quantification of malonaldehyde (MA). This condenses in the acidic medium with twice the molar amount of thiobarbituric acid to give a red pigment dye, which has a fluorescence at λExcitation: 533 nm, λEmission: 550 nm.
A platelet suspension obtained from pig's blood is preincubated with the test substance for 10 min at 37° C. The concentration of the suspension should be 8×10^8 cells/ml. The arachidonic acid cascade is then activated by addition of the antibiotic calcium ionophore A23187 ([…]). After a further 10 min at 37° C., the reaction is stopped using a trichloroacetic acid solution. The samples are centrifuged and the supernatant is incubated with thiobarbituric acid for 30 min at 70° C. After cooling (30 min at room temperature), the samples are measured fluorimetrically at 533/550 nm and the IC50 values of the test compounds are determined therefrom by means of a calibration curve.

Setting [1] is: Table 1, carbamic acid thioesters, read-out: MDA pIC50 (converted).
The mark [2] stands for this setting: Table 2, sulfanylacetamides, read-out: MDA pIC50 (converted).
[3] abbreviates: Table 8, arylsulfonamides, read-out: MDA IC50.
Setting [4] is: Table 7, arylamides, read-out: MDA IC50.
Setting [5] is: Table 7, arylamides, read-out: MDA pIC50 (converted).

Like-named read-outs stand apart in the source and are kept apart here.

T1 sequence (A0A287ANF9 25-600): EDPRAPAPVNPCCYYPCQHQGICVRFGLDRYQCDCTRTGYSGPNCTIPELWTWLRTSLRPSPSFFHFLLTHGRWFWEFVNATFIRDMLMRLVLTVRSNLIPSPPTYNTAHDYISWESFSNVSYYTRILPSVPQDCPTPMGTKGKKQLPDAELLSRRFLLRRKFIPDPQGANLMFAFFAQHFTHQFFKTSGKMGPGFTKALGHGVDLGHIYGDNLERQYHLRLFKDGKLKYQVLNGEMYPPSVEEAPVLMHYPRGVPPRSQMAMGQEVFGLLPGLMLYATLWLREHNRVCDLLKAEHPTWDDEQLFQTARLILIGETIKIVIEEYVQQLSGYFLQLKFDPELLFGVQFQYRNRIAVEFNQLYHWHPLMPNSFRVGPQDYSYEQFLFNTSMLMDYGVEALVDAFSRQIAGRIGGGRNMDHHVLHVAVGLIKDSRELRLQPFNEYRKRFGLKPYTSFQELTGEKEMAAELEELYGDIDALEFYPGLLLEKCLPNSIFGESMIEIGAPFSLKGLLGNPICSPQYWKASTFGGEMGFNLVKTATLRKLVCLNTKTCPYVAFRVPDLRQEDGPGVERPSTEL

`COc1ccc(-c2nc(SC(=O)N(C)C)[nH]c2-c2ccc(OC)cc2)cc1` [Compound T1, [4,5-Bis(4-methoxyphenyl)-1H-imidazol-2-yl]-N,N-dimethylcarbamic acid thioester]: the IC50 (Table 1, carbamic acid thioesters, read-out: MDA IC50) came to 0.071 µM.

Consider `COc1ccc(-c2nc(SC(=O)N(C(C)C)C(C)C)[nH]c2-c2ccc(OC)cc2)cc1` [Compound T3, [4,5-Bis(4-methoxyphenyl)-1H-imidazol-2-yl]-N,N-diisopropylcarbamic acid thioester], for which, under setting [1], the IC50 was 0.012 µM. For the compound `COc1ccc(-c2nc(SC(=O)N3CCOCC3)[nH]c2-c2ccc(OC)cc2)cc1` [Compound T4, [4,5-Bis(4-methoxyphenyl)-1H-imidazol-2-yl]-morpholine-4-carbamic acid thioester], the IC50 under setting [1] was 0.0282 µM. In the case of `COc1ccc(-c2nc(SCC(N)=O)[nH]c2-c2ccc(OC)cc2)cc1` [Compound T5, 2-[4,5-bis(4-methoxyphenyl)-1H-imidazol-2-ylsulfanyl]-acetamide], under “Table 2, sulfanylacetamides, read-out: MDA IC50”, the IC50 came out at 0.45 µM. On to `COc1ccc(-c2nc(SCC(=O)Nc3ccccc3)[nH]c2-c2ccc(OC)cc2)cc1` [Compound T9, N^1-Phenyl-2-[4,5-bis(4-methoxyphenyl)-1H-imidazol-2-ylsufanyl]acetamide], for which the IC50 under setting [2] was 0.0347 µM.

Turning to `COc1ccc(-c2nc(SCC(=O)Nc3ccc(Cl)cc3)[nH]c2-c2ccc(OC)cc2)cc1` [Compound T10, N^1-(4-Chlorophenyl)-2-[4,5-bis(4-methoxyphenyl)-1H-imidazol-2-yl-sufanyl]acetamide], the IC50 under setting [2] is 0.209 µM. As for `COc1ccc(-c2nc(SCC(=O)c3ccc(Cl)cc3)[nH]c2-c2ccc(OC)cc2)cc1` [Compound T12], for the setting “Table 4, aryl ketones, read-out: MDA IC50”, the IC50 came out at 0.046 µM. With `COc1ccc(-c2nc(SCCC(=O)c3ccccc3)[nH]c2-c2ccc(OC)cc2)cc1` [Compound T13, 3-[4,5-Bis(4-methoxyphenyl)-1H-imidazol-2-ylsufanyl]-1-phenylpropan-1-one], the IC50 (Table 4, aryl ketones, read-out: MDA pIC50 (converted)) was 0.0209 µM.

Turning to `COc1ccc(-c2nc(SCCN(C)C)[nH]c2-c2ccc(OC)cc2)cc1` [Compound T14, N,N-Dimethyl-[4,5-bis(4-methoxyphenyl)-1H-imidazol-2-ylsulfanyl]-ethanamine], the “MDA pIC50” value (Table 3, amines) came to 5.49 M. The IC50 (Table 3, amines, read-out: MDA IC50) amounted to 3.2 µM. As for `COc1ccc(-c2nc(SCCN)[nH]c2-c2ccc(OC)cc2)cc1` [Compound T15, 2-[4,5-Bis(4-methoxyphenyl)-1H-imidazol-2-ylsufanyl]ethanamine], under “Table 3, amines, read-out: MDA pIC50 (converted)”, the IC50 is 0.776 µM.

On to `COc1ccc(-c2nc(SCCNS(=O)(=O)c3ccccc3)[nH]c2-c2ccc(OC)cc2)cc1` [Compound T17, N^1-{2-[4,5-Bis(4-methoxyphenyl)-1H-imidazol-2-ylsufanyl]ethyl}benzene-sulfonamide], for which, under setting [3], the IC50 was 0.05 µM. For `COc1ccc(-c2nc(SCCN(C)S(=O)(=O)c3ccc(Cl)cc3)n(C)c2-c2ccc(OC)cc2)cc1` [Compound T19, N^1-{2-[4,5-Bis(4-methoxyphenyl)-1-methyl-1H-imidazol-2-ylsufanyl]-ethyl}-N-1-methyl-4-chlorobenzenesulfonamide], the IC50 (Table 16, dimethyl compounds, read-out: MDA pIC50 (converted)) was 0.0692 µM.

Turning to `COc1ccc(-c2nc(SCCNS(=O)(=O)c3ccc(F)cc3)[nH]c2-c2ccc(OC)cc2)cc1` [Compound T20, N^1-{2-[4,5-Bis(4-methoxyphenyl)-1H-imidazol-2-ylsufanyl]ethyl}-4-fluorobenzenesulfonamide], the IC50 under setting [3] worked out at 0.06 µM. Consider `COc1ccc(-c2nc(SCCNS(=O)(=O)c3ccc([N+](=O)[O-])cc3)[nH]c2-c2ccc(OC)cc2)cc1` [Compound T21, N^1-{2-[4,5-Bis(4-methoxyphenyl)-1H-imidazol-2-ylsufanyl]ethyl}-4-nitro-benzenesulfonamide], for which the “MDA pIC50” value (Table 8, arylsulfonamides) was determined as 6.96 M. For the same compound, the IC50 under setting [3] is 0.11 µM. Consider `COc1ccc(-c2nc(SCCNS(=O)(=O)c3ccc(C)cc3)[nH]c2-c2ccc(OC)cc2)cc1` [Compound T24, N^1-{2-[4,5-Bis(4-methoxyphenyl)-1H-imidazol-2-ylsufanyl]ethyl}-4-methylbenzenesulfonamide], for which, under setting [3], the IC50 amounted to 0.048 µM. As to `COc1ccc(-c2nc(SCCNS(=O)(=O)c3c(C)cc(C)cc3C)[nH]c2-c2ccc(OC)cc2)cc1` [Compound T25, N^1-{2-[4,5-Bis(4-methoxyphenyl)-1H-imidazol-2-ylsufanyl]ethyl}-2,4,6-trimethylbenzenesulfonamide], the IC50 (Table 8, arylsulfonamides, read-out: MDA pIC50 (converted)) was 0.324 µM.

On to `COc1ccc(-c2nc(SCCNS(=O)(=O)c3ccc(C(C)(C)C)cc3)[nH]c2-c2ccc(OC)cc2)cc1` [Compound T26, N^1-{2-[4,5-Bis(4-methoxyphenyl)-1H-imidazol-2-ylsufanyl]ethyl}-4-(tert-butyl)benzenesulfonamide], for which the IC50 under setting [3] came to 0.49 µM. On to `COc1ccc(-c2nc(SCCNC(=O)c3ccccc3)[nH]c2-c2ccc(OC)cc2)cc1` [Compound T28, N^1-{2-[4,5-Bis(4-methoxyphenyl)-1H-imidazol-2-ylsufanyl]ethyl}benzamide], for which, under setting [4], the IC50 was 0.54 µM. For the compound `COc1ccc(-c2nc(SCCNC(=O)c3ccccc3)n(C)c2-c2ccc(OC)cc2)cc1` [Compound T30, N^1-{2-[4,5-Bis(4-methoxyphenyl)-1-methyl-1H-imidazol-2-ylsufanyl]-ethyl}benzamide], the IC50 (Table 17, methyl derivatives, read-out: MDA pIC50 (converted)) is 0.0417 µM.

On to `COc1ccc(-c2nc(SCCNC(=O)c3ccc(Cl)cc3)[nH]c2-c2ccc(OC)cc2)cc1` [Compound T32, N^1-{2-[4,5-Bis(4-methoxyphenyl)-1H-imidazol-2-ylsufanyl]ethyl}-4-chlorobenzamide], for which the IC50 under setting [5] is 0.251 µM. Turning to `COc1ccc(-c2nc(SCCNC(=O)c3cccc(Cl)c3)[nH]c2-c2ccc(OC)cc2)cc1` [Compound T33, N^1-{2-[4,5-Bis(4-methoxyphenyl)-1H-imidazol-2-ylsufanyl]ethyl}-3-chlorobenzamide], the “MDA pIC50” value (Table 7, arylamides) stood at 6.03 M. Further, the IC50 under setting [4] was determined as 0.93 µM. Take `COc1ccc(-c2nc(SCCNC(=O)c3ccccc3Cl)[nH]c2-c2ccc(OC)cc2)cc1` [Compound T34, N^1-{2-[4,5-Bis(4-methoxyphenyl)-1H-imidazol-2-ylsufanyl]ethyl}-2-chlorobenzamide]: the IC50 under setting [4] was found to be 0.062 µM.

With `COc1ccc(-c2nc(SCCNC(=O)c3ccc(Cl)cc3Cl)[nH]c2-c2ccc(OC)cc2)cc1` [Compound T35, N^1-{2-[4,5-Bis(4-methoxyphenyl)-1H-imidazol-2-ylsufanyl]ethyl}-2,4-dichlorobenzamide], under setting [5], the IC50 is 0.151 µM. On to `COc1ccc(-c2nc(SCCNC(=O)c3c(Cl)cccc3Cl)[nH]c2-c2ccc(OC)cc2)cc1` [Compound T36, N^1-{2-[4,5-Bis(4-methoxyphenyl)-1H-imidazol-2-ylsufanyl]ethyl}-2,6-dichlorobenzamide], for which the IC50 under setting [5] is 0.11 µM. Take `COc1ccc(-c2nc(SCCNC(=O)c3cc(Cl)cc(Cl)c3)[nH]c2-c2ccc(OC)cc2)cc1` [Compound T37, N^1-{2-[4,5-Bis(4-methoxyphenyl)-1H-imidazol-2-ylsulfanyl]ethyl}-3,5-dichlorobenzamide]: the IC50 under setting [4] is 0.52 µM. Regarding `COc1ccc(-c2nc(SCCNC(=O)c3ccc(F)cc3)[nH]c2-c2ccc(OC)cc2)cc1` [Compound T38, N^1-{2-[4,5-Bis(4-methoxyphenyl)-1H-imidazol-2-ylsufanyl]ethyl}-4-fluorobenzamide], the IC50 under setting [5] is 0.251 µM. For the compound `COc1ccc(-c2nc(SCCNC(=O)c3ccc(C#N)cc3)[nH]c2-c2ccc(OC)cc2)cc1` [Compound T39, N^1-{2-[4,5-Bis(4-methoxyphenyl)-1H-imidazol-2ylsulfanyl]ethyl}-4-cyanobenzamide], under setting [5], the IC50 was 0.141 µM.
